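Growth conditions: 96-well plates. Treatment: test compound, 48 hours, 5 concentrations. Analysis: linear interpolation between bracketing concentrations; unreached endpoints set to highest concentration. The concentration for 50% growth inhibition is given as GI50. TGI denotes the concentration required for complete inhibition of growth.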
Tests used:
Assay in all cases: DTP human tumour cell line panel, 48 h
NCI-H460 lung = system: NCI-H460 lung
U251 CNS = system: U251 CNS
SN12C renal = system: SN12C renal
KM12 colon = system: KM12 colon
HT29 colon = system: HT29 colon
UACC-257 melanoma = system: UACC-257 melanoma
A549 NSCLC = system: A549 NSCLC
MOLT-4 leukemia = system: MOLT-4 leukemia
HCT-15 colon = system: HCT-15 colon
BT-549 breast = system: BT-549 breast

Row | SMILES | TGI (NCI-H460 lung) | TGI (U251 CNS) | TGI (SN12C renal) | TGI (KM12 colon) | TGI (HT29 colon) | TGI (UACC-257 melanoma) | TGI (A549 NSCLC) | TGI (MOLT-4 leukemia) | TGI (HCT-15 colon) | GI50 (NCI-H460 lung) | GI50 (U251 CNS) | GI50 (SN12C renal) | GI50 (KM12 colon) | GI50 (HT29 colon) | GI50 (BT-549 breast) | TGI (BT-549 breast) | GI50 (UACC-257 melanoma) | GI50 (A549 NSCLC) | GI50 (MOLT-4 leukemia) | GI50 (HCT-15 colon)
1 | CN1CCCC2(CCCc3ccccc32)C1 (stereo not given) | > 100 µM | > 100 µM | > 100 µM | > 100 µM | > 100 µM | > 100 µM | > 100 µM | > 100 µM | > 100 µM | – | – | – | – | – | – | – | – | – | – | –
2 | CNC(=O)c1ccc(N2CCN(Cc3ccc4nc(C)c(=O)[nH]c4c3F)CC2)c(F)n1 | > 100 µM | > 100 µM | > 100 µM | > 100 µM | > 100 µM | > 100 µM | > 100 µM | > 100 µM | > 100 µM | 73.8 µM | 36.5 µM | 57.7 µM | > 100 µM | > 100000 nM | 89.6 µM | > 100 µM | > 100 µM | > 100 µM | > 100000 nM | > 100000 nM
3 | CN(C)CC(C)(C)C(=O)/C=C/c1ccc(/C=C/C(=O)C(C)(C)CN(C)C)cc1 | 13.9 µM | 3.04 µM | 3.55 µM | 3.25 µM | 1.77 µM | 3.83 µM | 7.4 µM | – | 5.49 µM | – | – | – | – | – | – | – | – | – | – | –
4 | COc1ccc2c(CN3CCCCC3CO)cc3cc(OC)c(OC)cc3c2c1 (stereo not given) | – | 18.3 µM | 26.2 µM | 16.2 µM | 11.4 µM | 13.7 µM | 14.2 µM | 14.9 µM | 20.8 µM | – | – | – | – | – | – | – | – | – | – | –
5 | [Cl-].[O-]/N=C(\c1ccccc1)c1ccccn1.[O-]/N=C(\c1ccccc1)c1ccccn1.[O-]/N=C(\c1ccccc1)c1ccccn1.[Sm+3] | > 100 µM | > 100 µM | > 100 µM | > 100 µM | > 100 µM | 73.6 µM | > 100 µM | > 100 µM | > 100 µM | 27.3 µM | 38 µM | 33.1 µM | 17.6 µM | 44000 nM | – | – | 23.8 µM | 35.8 µM | 29100 nM | 32400 nM
6 | COc1ccc(OC)c2c1CC(C(=O)O)(C(=O)O)CC2=O | – | > 100 µM | > 100 µM | > 100 µM | – | – | > 100 µM | > 100 µM | > 100 µM | – | – | – | – | – | – | – | – | – | – | –
7 | O=c1nc(/C=C/c2ccccc2Cl)cc2n1CCN2CCO | > 100 µM | – | > 100 µM | > 100 µM | > 100 µM | – | – | > 100 µM | > 100 µM | – | – | – | – | – | – | – | – | – | – | –
8 | O=C(CP(=O)(O)O)NC(CC(=O)OCc1ccccc1)C(=O)OCc1ccccc1 (stereo not given) | > 100 µM | > 100 µM | > 100 µM | – | > 100 µM | > 100 µM | > 100 µM | > 100 µM | > 100 µM | – | – | – | – | – | – | – | – | – | – | –
9 | Cc1[nH]c2ccccc2c1C(=O)CC1(O)C(=O)Nc2ccccc21 (stereo not given) | > 100 µM | > 100 µM | > 100 µM | > 100 µM | > 100 µM | > 100 µM | > 100 µM | > 100 µM | > 100 µM | – | – | – | – | – | – | – | – | – | – | –
10 | COc1ccc2c(c1)N1CCc3cc(OC)c(OC)cc3C1C2 (stereo not given) | > 100 µM | > 100 µM | > 100 µM | > 100 µM | > 100 µM | > 100 µM | > 100 µM | > 100 µM | – | – | – | – | – | – | – | – | – | – | – | –
11 | CC(=O)[CH-]C(C)=O.CC(=O)[CH-]C(C)=O.[CH2-]CCC.[CH2-]CCC.[Sn+4] | 2.9 µM | 1.06 µM | 1.67 µM | 2.33 µM | 2.59 µM | 1.68 µM | 4.15 µM | > 100 µM | 1.99 µM | 1.39 µM | 0.304 µM | 0.346 µM | 1.11 µM | 1280 nM | – | – | 0.376 µM | 1.88 µM | 370 nM | 680 nM
12 | CN(C)CC(C)(C)/C(=N\Nc1ccccc1)c1ccccc1 | > 100 µM | > 100 µM | > 100 µM | > 100 µM | > 100 µM | > 100 µM | > 100 µM | > 100 µM | 53.8 µM | – | – | – | – | – | – | – | – | – | – | –
13 | CCOC(=O)C1N(S(=O)(=O)c2ccc(C)cc2)CCC12c1ccccc1N(C(C)=O)C2c1ccc(OC)c(OC)c1 (stereo not given) | > 100 µM | > 100 µM | > 100 µM | > 100 µM | > 100 µM | > 100 µM | > 100 µM | – | – | – | – | – | – | – | – | – | – | – | – | –
14 | c1cc(N(CCn2cccn2)CCn2cccn2)cc(N(CCn2cccn2)CCn2cccn2)c1 | > 100 µM | > 100 µM | > 100 µM | > 100 µM | – | > 100 µM | > 100 µM | > 100 µM | > 100 µM | – | – | – | – | – | – | – | – | – | – | –
15 | Fc1ccc2[nH]cc(-c3nonc3-c3c[nH]c4ccc(Br)cc34)c2c1 | 4.88 µM | 10.3 µM | 12.5 µM | 4.05 µM | 4.03 µM | 13.8 µM | 7.99 µM | – | 3.29 µM | 2.07 µM | 3.26 µM | 3.13 µM | 1.77 µM | 2010 nM | 3.38 µM | 15 µM | 4.17 µM | 2.87 µM | – | 1640 nM
16 | O=C1c2ccccc2C(Br)(Br)c2ccccc21 | > 31.6 µM | > 31.6 µM | > 31.6 µM | > 100 µM | > 100 µM | > 100 µM | > 31.6 µM | > 31.6 µM | > 31.6 µM | – | – | – | – | – | – | – | – | – | – | –
17 | Cc1ccc(S(=O)(=O)N/N=C(\c2nc3ccc(Cl)cc3[nH]c2=O)C(O)c2cccc([N+](=O)[O-])c2)cc1 (stereo not given) | > 100 µM | > 100 µM | > 100 µM | > 100 µM | > 100 µM | > 100 µM | > 100 µM | > 100 µM | > 100 µM | – | – | – | – | – | – | – | – | – | – | –
18 | COc1ccc(OC)c(/C(C)=N/NC(N)=S)c1 | > 100 µM | > 100 µM | > 100 µM | > 100 µM | > 100 µM | > 100 µM | > 100 µM | > 100 µM | > 100 µM | – | – | – | – | – | – | – | – | – | – | –
19 | C[N-]c1nnnn1C.[Au+].c1ccc([PH+](c2ccccc2)c2ccccc2)cc1 | 52.7 µM | 5.56 µM | 7.92 µM | 28.6 µM | 4.53 µM | 6.51 µM | 68.7 µM | 4.22 µM | 5.72 µM | 8.54 µM | 2.28 µM | 3.46 µM | 7.09 µM | 2000 nM | – | – | 2.03 µM | 14.7 µM | 1620 nM | 2170 nM
